Experimental data reported in US5925618A, “Peptides useful as somatostatin antagonists” (American Cyanamid Company, priority 1998, dated 1999).
Square brackets hold non-standard residues; d marks the D form. Peptide text beside a SMILES is read from it.

Key:
[1] = molecular target: T1, S. cerevisiae (yeast) cells expressing SRIF receptors (Rattus norvegicus, UniProt P30680); test: Yeast bioassay for SRIF antagonist activity (LY364 cells growing in response to SRIF, zone of growth inhibition); type: cell-based; conditions: Sample type 4th iteration; 10 μL of 5 mg/mL on disk, SRIF 10 nM, read after 3 days
T1 construct: expressed in transfected cells; host or cells: S. cerevisiae strain LY364
Description: SRIF antagonist assay using S. cerevisiae (yeast) cells expressing SRIF receptors that grow in response to SRIF
Agar plates containing LY364 cells that are growing in the presence of added SRIF are the basis for a sensitive SRIF antagonist assay, whereby zones of growth inhibition result from the addition of SRIF antagonists to the surface of the agar plate (see L. A. Price, et al., Molecular and Cellular Biology, 15, 6188-6195, 1995, incorporated herein by reference).
In this assay, LY364 cells are grown overnight in 2 mL of synthetic complete(SC) medium (3.4 g/L YNB without amino acids and ammonium sulfate, 10 g/L ammonium sulfate and 1.4 g/L CSM-ura-trp) with glucose (2%) and without uracil and tryptophan. These cells are washed and cultured for 4 to 8 hours in 5 mL of SC medium with lactate (3%) and without uracil and tryptophan, and finally grown overnight in 5 mL of SC medium with galactose (2%) and without uracil and tryptophan. Molten (50° C.) SC agar medium with galactose (2%) and without uracil, tryptophan and histidine is adjusted to pH 6.8 with KOH, mixed with 2×10^4 cells/mL and SRIF (S-14, 10 nM) and poured into square (20×20 cm) petri dishes. Sterile filter disks are placed on the surface of the agar, and saturated with 10 μL of water or DMSO containing 5 mg/mL test peptides. After three days, the plates display a uniform cloudy background of LY264 cells growing in response to the added SRIF. […] This zone is quantified by measuring its diameter (mm), which varies according to the potency of the SRIF antagonist. Those peptides or mixtures of peptides displaying the largest zones of inhibition are further characterized.
Values are compared among samples in the same experiment, as the degree of yeast growth varies somewhat from assay to assay. For the first five sample types, in which progressively less complex mixtures of peptides are found, this assay is the primary determining factor in choosing which samples form the basis of subsequent syntheses.
Plates are read after 3 days. Samples shown in Table I in bold type are chosen for further synthesis. In Table I, all amino acids are D-amino acids and dashes represent undefined amino acid residues.

Male Sprague-Dawley rats = test: Serum growth hormone levels in anaesthetized rats (peptide 1, BIM 23014C); type: in vivo, rat
Method: Evaluation in anaesthetized rats. Male Sprague-Dawley rats are anaesthetized with Sagatal and fitted so as to allow efficient intravenous treatment with control and test compounds as well as frequent blood sampling. Blood samples are tested for growth hormone (GH) levels by radioimmunoassay. Thirty minutes after the initiation of blood sampling, rats are given 5 μg, 25 μg or 50 μg of peptide 1.

T1 sequence (P30680 whole entry): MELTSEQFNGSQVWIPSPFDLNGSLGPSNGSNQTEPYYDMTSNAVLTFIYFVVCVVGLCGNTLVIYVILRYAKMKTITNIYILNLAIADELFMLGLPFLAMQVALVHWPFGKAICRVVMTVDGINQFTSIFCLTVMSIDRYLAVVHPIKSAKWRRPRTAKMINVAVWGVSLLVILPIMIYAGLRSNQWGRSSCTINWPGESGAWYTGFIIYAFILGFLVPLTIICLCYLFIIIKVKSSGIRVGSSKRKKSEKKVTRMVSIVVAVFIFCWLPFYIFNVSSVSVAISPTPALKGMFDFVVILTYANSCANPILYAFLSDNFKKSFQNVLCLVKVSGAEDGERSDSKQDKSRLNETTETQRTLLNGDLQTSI

**Q.** For `CC[C@@H](C)[C@@H](NC(=O)[C@@H](Cc1ccccc1)NC(=O)[C@@H](Cc1c[nH]cn1)NC(C)=O)C(=O)N[C@H](CCCNC(=N)N)C(=O)N[C@H](Cc1c[nH]c2ccccc12)C(=O)N[C@H](Cc1ccccc1)C(N)=O` [Peptide 1, h-f-i-r-w-f] (Ac-[dH][dF][dI][dR][dW][dF]-NH2), which “Inhibition Zone” value [1] is on record?
**A.** The value was 18 mm.

**Q.** What about the SGH (Male Sprague-Dawley rats; 5 μg group, 90 min (time of 2nd peptide 1 dose, after BIM 23014C)) of the same molecule?
**A.** Its SGH is 2.4 ng/mL.

**Q.** And the SGH (Male Sprague-Dawley rats; 5 μg peptide 1 at 30 min, sample 35 min)?
**A.** Its SGH is 17.5 ng/mL.

**Q.** And the SGH (Male Sprague-Dawley rats; 5 μg peptide 1 at 30 min, sample 40 min)?
**A.** The SGH was 14.9 ng/mL.

**Q.** And the SGH (Male Sprague-Dawley rats; 5 μg peptide 1 at 30 min, sample 45 min)?
**A.** Its SGH is 15.7 ng/mL.

**Q.** And the SGH (Male Sprague-Dawley rats; 5 μg peptide 1 group, i.v., 30 min (time of 1st peptide 1 dose))?
**A.** The SGH was 12.2 ng/mL.

**Q.** And the “serum GH levels after first dose” value (Male Sprague-Dawley rats; 5 μg, 25 μg or 50 μg i.v. at 30 min)?
**A.** The value was “significant increase in serum GH levels resulting from the highest dose”.

**Q.** What about the SGH (Male Sprague-Dawley rats; 25 μg group, 90 min (time of 2nd peptide 1 dose, after BIM 23014C)) of the same molecule?
**A.** The SGH was 5.1 ng/mL.

**Q.** And the SGH (Male Sprague-Dawley rats; 25 μg peptide 1 at 30 min, sample 35 min)?
**A.** Its SGH is 18.4 ng/mL.

**Q.** What about the SGH (Male Sprague-Dawley rats; 25 μg peptide 1 at 30 min, sample 40 min) of the same molecule?
**A.** Its SGH is 17.5 ng/mL.

**Q.** What about the SGH (Male Sprague-Dawley rats; 25 μg peptide 1 at 30 min, sample 45 min) of the same molecule?
**A.** The SGH was 14.0 ng/mL.

**Q.** What about the SGH (Male Sprague-Dawley rats; 25 μg peptide 1 group, i.v., 30 min (time of 1st peptide 1 dose)) of the same molecule?
**A.** The SGH was 16.6 ng/mL.

**Q.** And the SGH (Male Sprague-Dawley rats; 50 μg group, 90 min (time of 2nd peptide 1 dose, after BIM 23014C))?
**A.** Its SGH is 1.9 ng/mL.

**Q.** What about the SGH (Male Sprague-Dawley rats; 50 μg peptide 1 at 30 min, sample 35 min) of the same molecule?
**A.** The SGH was 50.2 ng/mL.

**Q.** What about the SGH (Male Sprague-Dawley rats; 50 μg peptide 1 at 30 min, sample 40 min) of the same molecule?
**A.** The SGH was 23.4 ng/mL.

**Q.** What about the SGH (Male Sprague-Dawley rats; 50 μg peptide 1 at 30 min, sample 45 min) of the same molecule?
**A.** The SGH was 15.5 ng/mL.

**Q.** And the SGH (Male Sprague-Dawley rats; 50 μg peptide 1 group, i.v., 30 min (time of 1st peptide 1 dose))?
**A.** The SGH was 19.7 ng/mL.

**Q.** What about the SGH (Male Sprague-Dawley rats; 2nd dose 5 μg peptide 1 at 90 min after BIM 23014C, sample 95 min) of the same molecule?
**A.** The SGH was 3.1 ng/mL.

**Q.** And the SGH (Male Sprague-Dawley rats; 2nd dose 5 μg peptide 1 at 90 min after BIM 23014C, sample 100 min)?
**A.** Its SGH is 1.7 ng/mL.

**Q.** And the SGH (Male Sprague-Dawley rats; 2nd dose 5 μg peptide 1 at 90 min after BIM 23014C, sample 105 min)?
**A.** The SGH was 1.7 ng/mL.

**Q.** What about the SGH (Male Sprague-Dawley rats; 2nd dose 5 μg peptide 1 at 90 min after BIM 23014C, sample 135 min) of the same molecule?
**A.** The SGH was 1.1 ng/mL.

**Q.** What about the SGH (Male Sprague-Dawley rats; 2nd dose 25 μg peptide 1 at 90 min after BIM 23014C, sample 95 min) of the same molecule?
**A.** The SGH was 11.4 ng/mL.

**Q.** What about the SGH (Male Sprague-Dawley rats; 2nd dose 25 μg peptide 1 at 90 min after BIM 23014C, sample 100 min) of the same molecule?
**A.** The SGH was 10.5 ng/mL.

**Q.** And the SGH (Male Sprague-Dawley rats; 2nd dose 25 μg peptide 1 at 90 min after BIM 23014C, sample 105 min)?
**A.** The SGH was 7.9 ng/mL.

**Q.** What about the SGH (Male Sprague-Dawley rats; 2nd dose 25 μg peptide 1 at 90 min after BIM 23014C, sample 135 min) of the same molecule?
**A.** The SGH was 5.2 ng/mL.

**Q.** What about the SGH (Male Sprague-Dawley rats; 2nd dose 50 μg peptide 1 at 90 min after BIM 23014C, sample 95 min) of the same molecule?
**A.** The SGH was 67.3 ng/mL.

**Q.** And the SGH (Male Sprague-Dawley rats; 2nd dose 50 μg peptide 1 at 90 min after BIM 23014C, sample 100 min)?
**A.** Its SGH is 31.8 ng/mL.

**Q.** What about the SGH (Male Sprague-Dawley rats; 2nd dose 50 μg peptide 1 at 90 min after BIM 23014C, sample 105 min) of the same molecule?
**A.** The SGH was 10.5 ng/mL.

**Q.** What about the SGH (Male Sprague-Dawley rats; 2nd dose 50 μg peptide 1 at 90 min after BIM 23014C, sample 135 min) of the same molecule?
**A.** Its SGH is 2.6 ng/mL.

**Q.** What about the “serum GH levels after second dose” value (Male Sprague-Dawley rats; second dose 5 μg, 25 μg or 50 μg after BIM 23014C) of the same molecule?
**A.** The value was “even greater increase in serum GH levels from the highest dose”.
